This is an account of results in patent publication US20250333406A1, “SULFONYL CYCLIC DERIVATIVES, AND COMPOSITIONS AND METHODS THEREOF” (Lysoway Therapeutics, Inc., priority 2023, published 2025).

Some results are limits rather than exact numbers.

This assay deals with TFEB. Description: TFEB Nuclear Translocation Assay. In kind it is cell-based. Particulars: read-out: EC50 of TFEB activation.
Usually EC50 stands for the concentration at which the effect is half-maximal. For `CC(C)S(=O)(=O)c1ccc(S(=O)(=O)n2nc(N3CCCC34CC4)c3c(Cl)cccc32)s1` [Compound 17, 4-chloro-1-((5-(isopropylsulfonyl)thiophen-2-yl)sulfonyl)-3-(4-azaspiro [2.4]heptan-4-yl)-1H-indazole], the EC50 was no more than 1000 nM.

As to `CC(C)S(=O)(=O)c1ccc(S(=O)(=O)n2nc(N3CCN(c4ncc(F)cn4)CC3(C)C)c3c(Cl)cccc32)cc1` [Compound 18, 4-chloro-3-(4-(5-fluoropyrimidin-2-yl)-2,2-dimethylpiperazin-1-yl)-1-((4-(isopropylsulfonyl)phenyl)sulfonyl)-1H-indazole], the EC50 is no more than 1000 nM.

Turning to `CC(C)S(=O)(=O)c1ccc(S(=O)(=O)n2nc(N3CCN(c4ccc(F)cn4)CC34CC4)c3c(F)cc(F)cc32)cc1` [Compound 19, 4,6-difluoro-3-[7-(5-fluoro-2-pyridyl)-4,7-diazaspiro [2.5]octan-4-yl]-1-(4-isopropylsulfonylphenyl) sulfonyl-indazole], the EC50 was no more than 1000 nM.

For the molecule `CC(C)S(=O)(=O)c1ccc(S(=O)(=O)n2nc(N3CCN(c4ncc(F)cn4)CC34CC4)c3c(F)cc(F)cc32)cc1` [Compound 20, 4,6-difluoro-3-[7-(5-fluoropyrimidin-2-yl)-4,7-diazaspiro [2.5]octan-4-yl]-1-(4-isopropylsulfonylphenyl) sulfonyl-indazole], the EC50 is no more than 1000 nM.

Turning to `CC(C)(F)S(=O)(=O)c1ccc(S(=O)(=O)n2nc(N3CCN(c4ncc(F)cn4)CC34CC4)c3c(Cl)cccc32)cc1` [Compound 22, 4-chloro-1-((4-((2-fluoropropan-2-yl)sulfonyl)phenyl)sulfonyl)-3-(7-(5-fluoropyrimidin-2-yl)-4,7-diazaspiro [2.5]octan-4-yl)-1H-indazole], the EC50 is no more than 1000 nM.

As to `CC(C)S(=O)(=O)c1ccc(S(=O)(=O)n2nc(N3CCN(c4ccc(F)cn4)CC34CC4)c3c(Cl)cccc32)cc1` [Compound 23, 4-chloro-3-[7-(5-fluoro-2-pyridyl)-4,7-diazaspiro [2.5]octan-4-yl]-1-(4-isopropylsulfonylphenyl) sulfonyl-indazole], the EC50 was no more than 1000 nM.

Turning to `CC(C)S(=O)(=O)c1ccc(S(=O)(=O)n2nc(N3CCN(c4ncc(F)cc4F)CC34CC4)c3c(Cl)cccc32)cc1` [Compound 24, 4-chloro-3-[7-(3,5-difluoro-2-pyridyl)-4,7-diazaspiro [2.5]octan-4-yl]-1-(4-isopropylsulfonylphenyl) sulfonyl-indazole], the EC50 was no more than 1000 nM.

Consider `CC(C)S(=O)(=O)c1ccc(S(=O)(=O)n2nc(N3CCN(c4ccc(F)cn4)CC34CC4)c3c(F)cccc32)cc1` [Compound 25, 4-fluoro-3-[7-(5-fluoro-2-pyridyl)-4,7-diazaspiro [2.5]octan-4-yl]-1-(4-isopropylsulfonylphenyl) sulfonyl-indazole], for which the EC50 is no more than 1000 nM.

In the case of `CC(C)S(=O)(=O)c1ccc(S(=O)(=O)n2nc(N3CCN(c4ncc(F)cc4F)CC34CC4)c3c(F)cccc32)cc1` [Compound 26, 3-[7-(3,5-difluoro-2-pyridyl)-4,7-diazaspiro [2.5]octan-4-yl]-4-fluoro-1-(4-isopropylsulfonylphenyl) sulfonyl-indazole], the EC50 was no more than 1000 nM.

Turning to `CC(C)S(=O)(=O)c1ccc(S(=O)(=O)n2nc(N3CCN(c4ncc(F)cc4F)CC34CC4)c3c(Cl)cc(F)cc32)cc1` [Compound 27, 4-chloro-3-[7-(3,5-difluoro-2-pyridyl)-4,7-diazaspiro [2.5]octan-4-yl]-6-fluoro-1-(4-isopropylsulfonylphenyl)sulfonyl-indazole], the EC50 is no more than 1000 nM.

On to `CC(C)S(=O)(=O)c1ccc(S(=O)(=O)n2nc(N3CCN(c4ncc(F)cc4F)CC34CC4)c3c(F)cc(F)cc32)cc1` [Compound 28, 3-[7-(3,5-difluoro-2-pyridyl)-4,7-diazaspiro[2.5]octan-4-yl]-4,6-difluoro-1-(4-isopropylsulfonylphenyl)sulfonyl-indazole], for which the half-maximal effective concentration (EC50) is no more than 1000 nM.

As to `O=S(=O)(c1ccc(S(=O)(=O)n2nc(N3CCN(c4ncc(F)cn4)CC34CC4)c3c(Cl)cccc32)cc1)C1CC1` [Compound 29, 4-chloro-1-((4-(cyclopropylsulfonyl)phenyl)sulfonyl)-3-(7-(5-fluoropyrimidin-2-yl)-4,7-diazaspiro [2.5]octan-4-yl)-1H-indazole], the EC50 was no more than 1000 nM.

In the case of `CC(C)S(=O)(=O)c1ccc(S(=O)(=O)n2nc(N3CCN(c4ncc(Cl)cc4F)CC34CC4)c3c(Cl)cccc32)s1` [Compound 30, 4-chloro-3-[7-(5-chloro-3-fluoro-2-pyridyl)-4,7-diazaspiro [2.5]octan-4-yl]-1-[(5-isopropylsulfonyl-2-thienyl)sulfonyl]indazole], the EC50 was no more than 1000 nM.

In the case of `CC(C)S(=O)(=O)c1ccc(S(=O)(=O)n2nc(N3CCN(c4ncc(F)cc4F)CC34CC4)c3c(Cl)ccc(F)c32)s1` [Compound 31, 4-chloro-3-(7-(3,5-difluoropyridin-2-yl)-4,7-diazaspiro [2.5]octan-4-yl)-7-fluoro-1-((5-(isopropylsulfonyl)thiophen-2-yl)sulfonyl)-1H-indazole], the EC50 is no more than 1000 nM.

In the case of `CC(C)S(=O)(=O)c1ccc(S(=O)(=O)n2nc(N3CCN(c4ncc(F)cc4F)CC34CC4)c3c(F)ccc(F)c32)s1` [Compound 32, 3-[7-(3,5-difluoro-2-pyridyl)-4,7-diazaspiro [2.5]octan-4-yl]-4,7-difluoro-1-[(5-isopropylsulfonyl-2-thienyl)sulfonyl]indazole], the EC50 was no more than 1000 nM.

As for `CC(C)S(=O)(=O)c1ccc(S(=O)(=O)n2nc(N3CCN(c4ncc(Cl)cc4F)CC34CC4)c3c(F)ccc(F)c32)s1` [Compound 33, 3-[7-(5-chloro-3-fluoro-2-pyridyl)-4,7-diazaspiro [2.5]octan-4-yl]-4,7-difluoro-1-[(5-isopropylsulfonyl-2-thienyl)sulfonyl]indazole], the EC50 is no more than 1000 nM.

With `CC(C)S(=O)(=O)c1ccc(S(=O)(=O)n2nc(N3CCN(c4ncc(F)cn4)CC34CC4)c3c(F)ccc(F)c32)s1` [Compound 34, 4,7-difluoro-3-(7-(5-fluoropyrimidin-2-yl)-4,7-diazaspiro [2.5]octan-4-yl)-1-((5-(isopropylsulfonyl)thiophen-2-yl)sulfonyl)-1H-indazole], the EC50 is no more than 1000 nM.

With `CC(C)S(=O)(=O)c1ccc(S(=O)(=O)n2nc(N3CCN(c4ncc(Cl)cc4F)CC34CC4)c3c(Cl)cc(F)cc32)s1` [Compound 35, 4-chloro-3-(7-(5-chloro-3-fluoropyridin-2-yl)-4,7-diazaspiro[2.5]octan-4-yl)-6-fluoro-1-((5-(isopropylsulfonyl)thiophen-2-yl)sulfonyl)-1H-indazole], the EC50 is no more than 1000 nM.

In the case of `CC(C)S(=O)(=O)c1ccc(S(=O)(=O)n2nc(N3CCN(c4ncc(Cl)cn4)CC34CC4)c3c(Cl)cc(F)cc32)s1` [Compound 36, 4-chloro-3-(7-(5-chloropyrimidin-2-yl)-4,7-diazaspiro [2.5]octan-4-yl)-6-fluoro-1-((5-(isopropylsulfonyl)thiophen-2-yl)sulfonyl)-1H-indazole], the EC50 was no more than 1000 nM.

Take `CC(C)S(=O)(=O)c1ccc(S(=O)(=O)n2nc(N3CCN(c4ncc(F)cc4F)CC34CC4)c3c(Cl)cc(F)cc32)s1` [Compound 37, 4-chloro-3-[7-(3,5-difluoro-2-pyridyl)-4,7-diazaspiro [2.5]octan-4-yl]-6-fluoro-1-[(5-isopropylsulfonyl-2-thienyl)sulfonyl]indazole]: the EC50 was no more than 1000 nM.

For the molecule `CC(C)S(=O)(=O)c1ccc(S(=O)(=O)n2nc(N3CCN(c4ncc(F)cn4)CC34CC4)c3c(Cl)cc(F)cc32)s1` [Compound 38, 4-chloro-6-fluoro-3-(7-(5-fluoropyrimidin-2-yl)-4,7-diazaspiro [2.5]octan-4-yl)-1-((5-(isopropylsulfonyl)thiophen-2-yl)sulfonyl)-1H-indazole], the EC50 is no more than 1000 nM.

With `CC(C)S(=O)(=O)c1ccc(S(=O)(=O)n2nc(N3CCN(c4ncc(Cl)s4)CC34CC4)c3c(Cl)cc(F)cc32)s1` [Compound 39, 5-chloro-2-(4-(4-chloro-6-fluoro-1-((5-(isopropylsulfonyl)thiophen-2-yl)sulfonyl)-1H-indazol-3-yl)-4,7-diazaspiro [2.5]octan-7-yl) thiazole], the EC50 is no more than 1000 nM.

For the molecule `CC(C)S(=O)(=O)c1ccc(S(=O)(=O)n2nc(N3CCN(c4ncc(F)cc4F)CC34CC4)c3c(F)cc(F)cc32)s1` [Compound 40, 3-(7-(3,5-difluoropyridin-2-yl)-4,7-diazaspiro [2.5]octan-4-yl)-4,6-difluoro-1-((5-(isopropylsulfonyl)thiophen-2-yl)sulfonyl)-1H-indazole], the EC50 was no more than 1000 nM.

On to `CC(C)S(=O)(=O)c1ccc(S(=O)(=O)n2nc(N3CCN(c4ccc(F)cn4)CC34CC4)c3c(Cl)cc(F)cc32)s1` [Compound 41, 4-chloro-6-fluoro-3-[7-(5-fluoro-2-pyridyl)-4,7-diazaspiro [2.5]octan-4-yl]-1-[(5-isopropylsulfonyl-2-thienyl)sulfonyl]indazole], for which the EC50 is no more than 1000 nM.

`CC(C)S(=O)(=O)c1ccc(S(=O)(=O)n2nc(N3CCN(c4ccc(F)cn4)CC34CC4)c3c(Cl)cccc32)s1` [Compound 42, 4-chloro-3-(7-(5-fluoropyridin-2-yl)-4,7-diazaspiro [2.5]octan-4-yl)-1-((5-(isopropylsulfonyl)thiophen-2-yl)sulfonyl)-1H-indazole]: the EC50 is no more than 1000 nM.

With `CC(C)S(=O)(=O)c1ccc(S(=O)(=O)n2nc(N3CCN(c4ncc(Cl)cn4)CC34CC4)c3c(Cl)cccc32)s1` [Compound 43, 4-chloro-3-[7-(5-chloropyrimidin-2-yl)-4,7-diazaspiro [2.5]octan-4-yl]-1-[(5-isopropylsulfonyl-2-thienyl)sulfonyl]indazole], the EC50 was no more than 1000 nM.

Turning to `CC(C)S(=O)(=O)c1ccc(S(=O)(=O)n2nc(N3CCN(c4ncc(F)cn4)CC34CC4)c3c(Cl)cccc32)s1` [Compound 44, 4-chloro-3-[7-(5-fluoropyrimidin-2-yl)-4,7-diazaspiro [2.5]octan-4-yl]-1-[(5-isopropylsulfonyl-2-thienyl)sulfonyl]indazole], the EC50 is no more than 1000 nM.
